From ChEMBL document CHEMBL1201862, “PubChem BioAssay data set” (2004)
Structures can show the parent of a compound that is named as a salt.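 Grown in 96-well plates, cells were treated for 48 hours with each compound at five concentrations. Insufficient inhibition: endpoint recorded as highest concentration tested. GI50 = concentration required for 50% inhibition of growth.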 Active and inactive are the calls of the source. No stated cut-off is given here; in the data, active = GI50 up to about 1.1 µM and inactive = higher.

What was measured:
Experiment in all cases: NCI tumour cell line growth inhibition, 48 h
IGROV-1 = system: IGROV-1
MCF7 = system: MCF7
U-251 = system: U-251
SNB-75 = system: SNB-75
SK-MEL-2 = system: SK-MEL-2
NCI-H226 = system: NCI-H226
UACC-257 = system: UACC-257
HOP-62 = system: HOP-62
OVCAR-3 = system: OVCAR-3
786-0 = system: 786-0
NCI-H522 = system: NCI-H522
HCC 2998 = system: HCC 2998
UO-31 = system: UO-31
MDA-MB-435 = system: MDA-MB-435
HCT-116 = system: HCT-116
T47D = system: T47D
SK-MEL-5 = system: SK-MEL-5
Malme-3M = system: Malme-3M
COLO 205 = system: COLO 205
KM12 = system: KM12

Measured: GI50

O=C1c2ccccc2C(=O)c2c1ccc1c2OCO1
inactive: IGROV-1 > 100 µM | MCF7 > 100 µM | U-251 > 100 µM | SNB-75 23.1 µM | SK-MEL-2 > 100 µM | NCI-H226 58.7 µM | UACC-257 > 100 µM | HOP-62 > 100 µM | OVCAR-3 > 100 µM | 786-0 > 100 µM | NCI-H522 > 100 µM | HCC 2998 > 100 µM | UO-31 > 100 µM | MDA-MB-435 > 100 µM | HCT-116 > 100 µM | T47D > 100 µM | SK-MEL-5 > 100 µM | Malme-3M > 100 µM | COLO 205 > 100 µM | KM12 > 100 µM

Cc1nc2ccc([N+](=O)[O-])cc2c(=O)n1C(=S)Nc1cccc(Cl)c1
inactive: MCF7 17.2 µM | U-251 18.5 µM | SNB-75 16.5 µM | SK-MEL-2 6.18 µM | NCI-H226 14.9 µM | UACC-257 17.3 µM | HOP-62 19.2 µM | OVCAR-3 12.3 µM | 786-0 24.7 µM | HCC 2998 9.02 µM | UO-31 5.24 µM | MDA-MB-435 17.7 µM | HCT-116 16 µM | T47D 7.53 µM | SK-MEL-5 14.1 µM | Malme-3M 21.1 µM | COLO 205 14 µM | KM12 12.9 µM

O=C1CC(Cl)c2c1csc2Br (stereo not given)
inactive: IGROV-1 16.5 µM | MCF7 6.25 µM | U-251 16.7 µM | SNB-75 19.8 µM | SK-MEL-2 15.1 µM | NCI-H226 29.9 µM | UACC-257 16.3 µM | HOP-62 14.5 µM | OVCAR-3 16.3 µM | 786-0 7.91 µM | NCI-H522 3.26 µM | HCC 2998 17.4 µM | UO-31 8.93 µM | MDA-MB-435 15.1 µM | HCT-116 15.9 µM | T47D 23.1 µM | SK-MEL-5 16.9 µM | Malme-3M 15.7 µM | COLO 205 15.2 µM | KM12 13.2 µM

CSc1c(C#N)c(=O)[nH]c2[nH]nc(C)c12
inactive: MCF7 > 100 µM | U-251 > 100 µM | SNB-75 > 100 µM | SK-MEL-2 > 100 µM | NCI-H226 > 100 µM | UACC-257 > 100 µM | OVCAR-3 > 100 µM | 786-0 > 100 µM | HCC 2998 > 100 µM | UO-31 > 100 µM | MDA-MB-435 > 100 µM | HCT-116 33.3 µM | T47D > 100 µM | SK-MEL-5 > 100 µM | Malme-3M > 100 µM | COLO 205 > 100 µM | KM12 > 100 µM

Cc1cc2nc3c(C#N)c(-c4ccccc4)cc(Nc4cccc(C(F)(F)F)c4)n3c2cc1C
inactive: MCF7 3.91 µM | SNB-75 8.83 µM | SK-MEL-2 2.61 µM | NCI-H226 3.86 µM | UACC-257 3.48 µM | HOP-62 9.98 µM | OVCAR-3 2.21 µM | 786-0 4.4 µM | NCI-H522 4.49 µM | HCC 2998 3.84 µM | UO-31 5.08 µM | MDA-MB-435 5.13 µM | HCT-116 2.7 µM | T47D 4.16 µM | SK-MEL-5 3.21 µM | Malme-3M 7.87 µM | COLO 205 4.17 µM | KM12 4.07 µM

NCCc1cc(O)c(O)cc1O [OXIDOPAMINE HYDROCHLORIDE]
inactive: IGROV-1 19.3 µM | MCF7 25.3 µM | SNB-75 23.7 µM | SK-MEL-2 43.5 µM | UACC-257 20.4 µM | HOP-62 22.9 µM | OVCAR-3 55.7 µM | 786-0 18.6 µM | HCC 2998 56.2 µM | UO-31 25.2 µM | MDA-MB-435 18.9 µM | HCT-116 18.7 µM | T47D 23.1 µM | SK-MEL-5 18.5 µM | Malme-3M > 100 µM | COLO 205 41.9 µM | KM12 17.5 µM

O=C(OCC1CCCN2CCCCC12)c1ccncc1 (stereo not given)
inactive: IGROV-1 > 100 µM | MCF7 > 100 µM | U-251 > 100 µM | SNB-75 > 100 µM | SK-MEL-2 > 100 µM | NCI-H226 > 100 µM | UACC-257 > 100 µM | HOP-62 > 100 µM | OVCAR-3 > 100 µM | 786-0 > 100 µM | HCC 2998 > 100 µM | UO-31 > 100 µM | MDA-MB-435 > 100 µM | HCT-116 > 100 µM | T47D > 100 µM | SK-MEL-5 > 100 µM | Malme-3M > 100 µM | COLO 205 > 100 µM | KM12 > 100 µM

CCOC(=O)c1c(SCCN2CCCC2)n(-c2ccccc2)c(=S)n(-c2ccccc2)c1=O
inactive: IGROV-1 2.03 µM | MCF7 1.19 µM | U-251 6.14 µM | SNB-75 6.93 µM | SK-MEL-2 11.4 µM | NCI-H226 16.8 µM | UACC-257 1.69 µM | HOP-62 18.5 µM | OVCAR-3 1.78 µM | 786-0 1.55 µM | NCI-H522 1.77 µM | HCC 2998 1.87 µM | MDA-MB-435 2.55 µM | HCT-116 4.27 µM | T47D 2.72 µM | SK-MEL-5 3.07 µM | Malme-3M 1.56 µM | COLO 205 1.84 µM | KM12 15.8 µM

Clc1ccc2c(c1)N(CCCN1CCCC13CCCCC3)c1ccccc1S2
inactive: IGROV-1 12.3 µM | MCF7 14.3 µM | U-251 10.2 µM | SK-MEL-2 9.77 µM | NCI-H226 35.3 µM | UACC-257 10.3 µM | HOP-62 16.3 µM | OVCAR-3 14.1 µM | 786-0 10.8 µM | NCI-H522 10.6 µM | HCC 2998 3.08 µM | UO-31 8.38 µM | MDA-MB-435 14.2 µM | HCT-116 13.9 µM | T47D 11.9 µM | SK-MEL-5 > 41.9 µM | Malme-3M 14.2 µM | COLO 205 > 39.2 µM | KM12 13.8 µM

CCOC(=O)C1C/C(C)=C(/C)SCCCS1 (stereo not given)
inactive: IGROV-1 > 100 µM | MCF7 > 100 µM | U-251 > 100 µM | SK-MEL-2 > 100 µM | NCI-H226 > 100 µM | UACC-257 > 100 µM | HOP-62 > 100 µM | OVCAR-3 98.9 µM | 786-0 > 100 µM | NCI-H522 13.5 µM | HCC 2998 > 100 µM | UO-31 > 100 µM | MDA-MB-435 > 100 µM | HCT-116 50.2 µM | T47D 60.3 µM | SK-MEL-5 45.5 µM | Malme-3M > 100 µM | COLO 205 > 100 µM | KM12 > 100 µM

Cc1cnc2sn(-c3ccc([N+](=O)[O-])cc3)c(=O)c2c1
inactive: IGROV-1 57.3 µM | MCF7 > 100 µM | U-251 30.1 µM | SNB-75 23.8 µM | SK-MEL-2 45.7 µM | NCI-H226 > 100 µM | HOP-62 14.9 µM | OVCAR-3 36.1 µM | 786-0 56.8 µM | NCI-H522 34.7 µM | HCC 2998 > 100 µM | UO-31 74.6 µM | MDA-MB-435 > 100 µM | HCT-116 > 100 µM | T47D > 100 µM | SK-MEL-5 > 100 µM | Malme-3M > 100 µM | COLO 205 > 100 µM | KM12 > 100 µM
